In patent US12281079B2, “Quinoline derivatives, processes for their preparation and uses thereof for the treatment of cancer” (Lead Discovery Center GmbH, priority 2019, dated 2025) one finds IC50 data, which are given here for 27 compounds.

pIC50: −log10 of the molar value. Where a name gives a salt, the structure may show the parent alone.

Assay [1] deals with mitochondrial RNA polymerase (POLRMT) (Mus musculus, UniProt Q8BKF1). The assay is described as follows: Homogeneous TR-FRET assay for mitochondrial transcription activity. Format: biochemical. As to conditions: homogeneous TR-FRET assay according to Example 4. Put shortly:
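Read-out is TR-FRET (ex 340, em 665 nm) from two adjacent labelled DNA probes annealing to the 407 bp transcript after EDTA/700 mM NaCl stop. Reaction: murine POLRMT, TFAM, TFB2M and LSP plasmid template, compound 10 μM or serial dilution, 10 min rt preincubation, 500 μM each nucleotide, 2 h rt.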
(Time-resolved FRET reads energy transfer from a long-lived donor to a nearby acceptor.)

The test system of assay [2] is mitochondrial transcription (7S RNA) in HeLa cells. The assay can be described thus: Quantitative real time-PCR assay of inhibition of mitochondrial transcription (7S RNA) in HeLa cells. Format: cell-based. As to conditions: Homo sapiens, 4 h compound incubation, according to Example 5, read-out: cellular qPCR assay. Summed up:
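HeLa cells were exposed to compound dilution series or DMSO for 4 h, then RNA was extracted, normalized and reverse-transcribed. TaqMan qRT-PCR measured short-lived 7S RNA, with POLRMT as nuclear-transcription readout and TBP as housekeeping gene. Biological triplicates were analyzed by ΔΔCt and reported as Rq % (2−ΔΔCt).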
A general note: Quantitative PCR measures a nucleic acid by following its amplification.

mitochondrial RNA polymerase (POLRMT), sequence (Q8BKF1 42-1207): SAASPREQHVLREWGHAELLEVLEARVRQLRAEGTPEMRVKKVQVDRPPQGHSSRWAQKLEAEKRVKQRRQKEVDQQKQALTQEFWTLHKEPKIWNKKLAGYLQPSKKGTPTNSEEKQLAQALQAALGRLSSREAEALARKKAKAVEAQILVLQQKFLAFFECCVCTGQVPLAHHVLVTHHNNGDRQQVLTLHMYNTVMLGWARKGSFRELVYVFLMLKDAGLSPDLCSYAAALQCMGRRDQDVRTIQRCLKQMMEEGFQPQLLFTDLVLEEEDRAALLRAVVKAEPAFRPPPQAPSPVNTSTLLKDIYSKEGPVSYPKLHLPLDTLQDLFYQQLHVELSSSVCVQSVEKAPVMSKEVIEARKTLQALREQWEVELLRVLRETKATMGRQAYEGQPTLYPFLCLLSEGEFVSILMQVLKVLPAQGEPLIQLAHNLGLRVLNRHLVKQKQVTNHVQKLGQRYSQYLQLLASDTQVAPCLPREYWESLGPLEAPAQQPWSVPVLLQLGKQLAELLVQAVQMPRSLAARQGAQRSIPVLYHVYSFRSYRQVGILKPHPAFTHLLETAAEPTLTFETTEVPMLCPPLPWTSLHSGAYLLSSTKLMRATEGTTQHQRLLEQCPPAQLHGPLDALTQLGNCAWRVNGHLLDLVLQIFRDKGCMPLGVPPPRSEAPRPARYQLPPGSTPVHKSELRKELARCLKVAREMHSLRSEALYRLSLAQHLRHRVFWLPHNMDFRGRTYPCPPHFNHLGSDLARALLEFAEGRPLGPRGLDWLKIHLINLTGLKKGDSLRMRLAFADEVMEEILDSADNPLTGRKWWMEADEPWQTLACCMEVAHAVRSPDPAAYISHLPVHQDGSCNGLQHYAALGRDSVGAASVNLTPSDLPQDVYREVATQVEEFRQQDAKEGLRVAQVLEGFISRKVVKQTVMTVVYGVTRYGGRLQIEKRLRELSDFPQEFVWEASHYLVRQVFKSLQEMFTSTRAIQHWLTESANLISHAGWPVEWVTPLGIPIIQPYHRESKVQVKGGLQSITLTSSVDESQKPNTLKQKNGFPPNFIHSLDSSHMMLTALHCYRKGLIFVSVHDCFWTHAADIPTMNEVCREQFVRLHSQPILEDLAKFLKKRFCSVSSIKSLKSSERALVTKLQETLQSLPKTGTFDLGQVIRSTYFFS

On to `C[C@@H](Oc1ccc2c(-c3c(Cl)cc(F)cc3Cl)ccnc2c1)C(=O)N1CCCC[C@@H]1C` [Compound 199, (2R)-2-[[4-(2,6-dichloro-4-fluoro-phenyl)-7-quinolyl]oxy]-1-[(2S)-2-methyl-1-piperidyl]propan-1-one], for which the figures for the pIC50 in assay [1] and in assay [2] were 7.00 to 7.70 and > 8.00, respectively.
For `CC1CCCC(C)N1C(=O)[C@@H](C)Oc1ccc2c(-c3ccc(F)cc3Cl)ccnc2c1` (stereo partly drawn) [Compound 211, (2R)-2-[[4-(2-chloro-4-fluoro-phenyl)-7-quinolyl]oxy]-1-(2,6-dimethyl-1-piperidyl)propan-1-one], in that order: 6.00 to 7.00 and 7.30 to 8.00.
The like results for `CCOC(=O)[C@H]1CCCN(C(=O)[C@@H](C)Oc2ccc3c(-c4c(C)cccc4C)ccnc3c2)C1` [Compound 4, ethyl (3S)-1-[(2R)-2[[4-(2,6-dimethylphenyl)-7-quinolyl]oxy]propanoyl]piperidine-3-carboxylate] were, in that order, > 7.70 and > 8.00.
For `C[C@@H](Oc1ccc2c(-c3ccc(F)cc3Cl)ccnc2c1)C(=O)N1CCC[C@H](c2nn[nH]n2)C1` [Compound 11, (2R)-2-[[4-(2-chloro-4-fluoro-phenyl)-7-quinolyl]oxy]-1-[(3S)-3-(2H-tetrazol-5-yl)-1-piperidyl]propan-1-one], in that order: > 7.70 and 6.30 to 7.30.
On to `C[C@@H](Oc1ccc2c(-c3ccc(F)cc3Cl)ccnc2c1)C(=O)N1CCC2(CCNC2=O)CC1` [Compound 205, 8-[(2R)-2-[[4-(2-chloro-4-fluoro-phenyl)-7-quinolyl]oxy]propanoyl]-2,8-diazaspiro[4.5]decan-1-one], for which the values for the pIC50 in assay [1] and in assay [2] were 6.00 to 7.00 and 7.30 to 8.00, respectively.
Consider `C[C@@H](Oc1ccc2c(-c3ccc(F)cc3Cl)ccnc2c1)C(=O)Nc1ccncc1` [Compound 95, (2R)-2-[[4-(2-chloro-4-fluoro-phenyl)-7-quinolyl]oxy]-N-(4-pyridyl)propanamide], for which the pIC50 was 6.00 to 7.00 in assay [1] and 6.30 to 7.30 in assay [2].
For `C[C@@H](Oc1ccc2c(-c3ccc(F)cc3Cl)ccnc2c1)C(=O)N1CCNC(=O)C1` [Compound 63, (R)-4-(2-((4-(2-chloro-4-fluorophenyl)quinolin-7-yl)oxy)propanoyl)piperazin-2-one], in that order: 6.00 to 7.00 and 6.30 to 7.30.
The like results for `CCOC(=O)C[C@H]1CCCN(C(=O)[C@@H](C)Oc2ccc3c(-c4ccccc4C)ccnc3c2)C1` [Compound 8, ethyl 2-[(3R)-1-[(2R)-2-[[4-(o-tolyl)-7-quinolyl]oxy]propanoyl]-3-piperidyl]acetate] were, in that order, > 7.70 and 6.30 to 7.30.
For `Cc1cscc1-c1ccnc2cc(O[C@H](C)C(=O)N3CCC[C@H](CC(=O)O)C3)ccc12` [Compound 133, 2-[(3R)-1-[(2R)-2-[[4-(4-methyl-3-thienyl)-7-quinolyl]oxy]propanoyl]-3-piperidyl]acetic acid], in that order: 6.00 to 7.00 and 6.30 to 7.30.
For `C[C@@H](Oc1ccc2c(-c3ccc(F)cc3Cl)ccnc2c1)C(=O)N1CCC=C(C(=O)O)C1` [Compound 219, 1-[(2R)-2-[[4-(2-chloro-4-fluoro-phenyl)-7-quinolyl]oxy]propanoyl]-3,6-dihydro-2H-pyridine-5-carboxylic acid], the pIC50 in assay [1] was 7.00 to 7.70; in assay [2] it was 6.30 to 7.30.
The like results for `C[C@@H](Oc1ccc2c(-c3c(Cl)cc(F)cc3Cl)ccnc2c1)C(=O)N1CCCC(C2(O)CC2)C1` (mixture of isomers) [Compound 203, rac-(2R)-2-[[4-(2,6-dichloro-4-fluoro-phenyl)-7-quinolyl]oxy]-143-(1-hydroxycyclopropyl)-1-piperidyl]propan-1-one] were, in that order, 6.00 to 7.00 and 7.30 to 8.00.
For `CCc1ccccc1-c1ccnc2cc(O[C@H](C)C(=O)N3CCC[C@H](CC(=O)O)C3)ccc12` [Compound 121, 2-((R)-1-((R)-2-((4-(2-ethylphenyl)quinolin-7-yl)oxy)propanoyl)piperidin-3-yl)acetic acid], in that order: 7.00 to 7.70 and 7.30 to 8.00.
For `Cc1cccc(C)c1-c1ccnc2cc(O[C@H](C)C(=O)N3CCCC(S(N)(=O)=O)C3)ccc12` (mixture of isomers) [Compound 119, 1-[rac-(2R)-2-[[4-(2,6-dimethylphenyl)-7-quinolyl]oxy]propanoyl]piperidine-3-sulfonamide], in that order: > 7.70 and > 8.00.
On to `Cc1cccc(C)c1-c1ccnc2cc(O[C@H](C)C(=O)N3CCC[C@H](C(=O)O)C3)ccc12` [Compound 2, (3S)-1-[(2R)-2-[[4-(2,6-dimethylphenyl)-7-quinolyl]oxy]propanoyl]piperidine-3-carboxylic acid], for which the pIC50 in assay [1] is > 7.70; in assay [2], > 8.00.
For `C[C@@H](Oc1ccc2c(-c3ccc(F)cc3Cl)ccnc2c1)C(=O)N1CCCC(C2(O)CC2)C1` (stereo partly drawn) [Compound 207, (2R)-2-[[4-(2-chloro-4-fluoro-phenyl)-7-quinolyl]oxy]-1-[3-(1-hydroxycyclopropyl)-1-piperidyl]propan-1-one], in that order: 6.00 to 7.00 and > 8.00.
For `Cc1cc(F)cc(C)c1-c1ccnc2cc(O[C@H](C)C(=O)N3CCCC(C4(O)CC4)C3)ccc12` (mixture of isomers) [Compound 180, rac-(2R)-2-[[4-(4-fluoro-2,6-dimethyl-phenyl)-7-quinolyl]oxy]-1-[3-(1-hydroxycyclopropyl)-1-piperidyl]propan-1-one], in that order: > 7.70 and > 8.00.
With `C[C@@H](Oc1ccc2c(-c3c(Cl)cc(F)cc3Cl)ccnc2c1)C(=O)N1CCC[C@@](C)(C(=O)O)C1` [Compound 188, (3R)-1-[(2R)-2-[[4-(2,6-dichloro-4-fluoro-phenyl)-7-quinolyl]oxy]propanoyl]-3-methyl-piperidine-3-carboxylic acid], the results for the pIC50 in assay [1] and in assay [2] were > 7.70 and 7.30 to 8.00, respectively.
The like results for `Cc1cc(F)cc(C)c1-c1ccnc2cc(O[C@H](C)C(=O)N3CCCC4(CC4C(=O)O)C3)ccc12` (mixture of isomers) [Compound 174, 5-[rac-(2R)-2-[[4-(4-fluoro-2,6-dimethyl-phenyl)-7-quinolyl]oxy]propanoyl]-5-azaspiro[2.5]octane-2-carboxylic acid] were, in that order, > 7.70 and > 8.00.
As for `C[C@H](Oc1ccc2c(-c3ccccc3Cl)ccnc2c1)C(=O)N1CCC[C@H](C(=O)O)C1` [Compound 78, (3S)-1-[(2S)-2-[[4-(2-chlorophenyl)-7-quinolyl]oxy]propanoyl]piperidine-3-carboxylic acid], the pIC50 was 6.00 to 7.00 in assay [1] and 5.30 to 6.30 in assay [2].
For `C[C@@H](Oc1ccc2c(-c3ccc(F)cc3Cl)ccnc2c1)C(=O)N1CC[C@@H](NC(=O)NC(C)(C)C)C1` [Compound 214, 1-tertbutyl-3-[(3R)-1-[(2R)-2-[[4-(2-chloro-4-fluoro-phenyl)-7-quinolyl]oxy]propanoyl]pyrrolidin-3-yl]urea], in that order: 6.00 to 7.00 and 6.30 to 7.30.
For `CC(=O)N(O)[C@H]1CCCN(C(=O)[C@@H](C)Oc2ccc3c(-c4c(C)cc(F)cc4C)ccnc3c2)C1` [Compound 185, N-[(3S)-1-[(2R)-2-[[4-(4-fluoro-2,6-dimethyl-phenyl)-7-quinolyl]oxy]propanoyl]-3-piperidyl]-N-hydroxy-acetamide], in that order: > 7.70 and > 8.00.
The like results for `CCOC(=O)[C@H]1CCCN(C(=O)[C@@H](C)Oc2ccc3c(-c4ccccc4Cl)cc(F)nc3c2)C1` [Compound 41, ethyl (3S)-1-[(2R)-2-[[4-(2-chlorophenyl)-2-fluoro-7-quinolyl]oxy]propanoyl]piperidine-3-carboxylate] were, in that order, 6.00 to 7.00 and 5.30 to 6.30.
Turning to `Cc1cc(F)ccc1-c1cc(Cl)nc2cc(O[C@H](C)C(=O)N3CCC[C@H](CC(=O)O)C3)ccc12` [Compound 57, 2-[(3R)-1-[(2R)-2-[[2-chloro-4-(4-fluoro-2-methyl-phenyl)-7-quinolyl]oxy]propanoyl]-3-piperidyl]acetic acid], the pIC50 is 6.00 to 7.00 in assay [1] and 6.30 to 7.30 in assay [2].
The like results for `C[C@@H](Oc1ccc2c(-c3c(Cl)cccc3Cl)ccnc2c1)C(=O)N1CCC[C@H](C(=O)O)C1` [Compound 129, (3S)-1-[(2R)-2-[[4-(2,6-dichlorophenyl)-7-quinolyl]oxy]propanoyl]piperidine-3-carboxylic acid] were, in that order, > 7.70 and > 8.00.
For `C[C@@H](Oc1ccc2c(-c3ccc(F)cc3Cl)ccnc2c1)C(=O)N1CCCC2(CC2C(=O)O)C1` (stereo partly drawn) [Compound 193, 5-[rac-(2R)-2-[[4-(2-chloro-4-fluoro-phenyl)-7-quinolyl]oxy]propanoyl]-5-azaspiro[2.5]octane-2-carboxylic acid], in that order: 7.00 to 7.70 and 7.30 to 8.00.
The like results for `Cc1cc(F)cc(C)c1-c1ccnc2cc(O[C@H](C)C(=O)N3CCCC(C(C)(C)C(=O)O)C3)ccc12` (mixture of isomers) [Compound 186, 2-methyl-2-[1-[rac-(2R)-2-[[4-(4-fluoro-2,6-dimethyl-phenyl)-7-quinolyl]oxy]propanoyl]-3-piperidyl]propanoic acid] were, in that order, > 7.70 and > 8.00.
Take `C[C@@H](Oc1ccc2c(-c3ccc(F)cc3Cl)ccnc2c1)C(=O)N1CCNCC1` [Compound 55, (R)-2-((4-(2-chloro-4-fluorophenyl)quinolin-7 yl)oxy)-1-(piperazin-1 yl)propan-1-one 2×TFA salt]: the pIC50 was 6.00 to 7.00 in assay [1] and 6.30 to 7.30 in assay [2].
